Laboratory results from article PMC3876047, “Self/Co-Assembling Peptide, EAR8-II, as a Potential Carrier for a Hydrophobic Anticancer Drug Pirarubicin (THP)—Characterization and in-Vitro Delivery” (International Journal of Molecular Sciences, 2013).

Legend:
HeLa cells = assay: Cellular toxicity, CCK-8 assay, HeLa; type: cell-based, Human; details: 24 h
Description: (§1) All cell lines, purchased from Cedarlane (Burlington, ON, Canada), were used in the current study and cultured in their respective culture medium as follows: Human Cervical Adenocarcinoma: HeLa (CCL-2) in Eagle's Minimum Essential Medium (EMEM) (ATCC30-2003), Human lung cancer: A549 (CCL-185) in F-12 medium (ATCC30-2004). All medium solutions were prepared with 10% fetal bovine serum (FBS-[…]). Two human cancer cell lines, with 10^4 cells per well concentrations, were seeded in 96-well plates, followed by treatment with different peptide-drug complex ratios for 24 h. Cellular-toxicity experiments were performed with sensitive colorimetric assay called Cell counting kit-8 (CCK-8) (Dojindo Molecular Technologies, Inc. Burlington, ON, Canada). CCK-8 contains highly water-soluble tetrazolium salt (WST-8), which is reduced by dehydrogenase activities in cells to give the yellow color of the formazan dye, which is soluble in culture media. The amount of formazan dye is measured by absorption (O.D.) at 450 nm, which is directly proportional to the number of living cells.

[1] = Solubilisation of THP in water and EAR8-II solution (appearance); type: physicochemical; details: visual appearance
Description: To determine a suitable concentration of required EAR8-II for THP encapsulation, different concentrations of EAR8-II, in a range of 0.05–1.0 mg/mL, were prepared and combined with THP at 0.1 mg/mL concentration in aqueous solution. Solubility of THP in water is very low, whereas it can be dissolved and stabilized in an EAR8-II solution at a minimum concentration of 0.2 mg/mL. […] However, at higher EAR8-II concentrations (0.2–0.6 mg/mL), THP molecules were fully dissolved, and consequently, a clear-transparent solution of the peptide-drug complexes formed. At much higher peptide concentrations (above 0.6 mg/mL), THP molecules were still fully soluble, but the excess amount of EAR8-II produced a cloudier solution, with clearly a higher particle size distribution. Note that amphiphilic features of EAR8-II, including the ionic and hydrophobic residues, stimulated binding with hydrophobic molecules of THP through protonation of NH2 to NH3^+ in THP molecules and hydrophobic interactions between alanine residues and aromatic rings in the THP structure. […] Both ionic and hydrophobic interactions are the possible main interactions of EAR8-II and THP, i.e., the protonation of THP in an acidic EAR8-II solution and hydrophobic interaction between THP and hydrophobic side chains of EAR8-II are the dominant forces in complexation of EAR8-II-THP. […]

A549 cells = assay: Cellular toxicity, CCK-8 assay, A549; type: cell-based, Human; details: 24 h
Description: as §1

[2] = Steady-state THP fluorescence, encapsulation of THP by EAR8-II; type: physicochemical; details: [THP] = 0.1 mg/mL, fluorescence excitation 480 nm / emission 590 nm, plateau of intensity
Description: The amount of protonated THP in EAR8-II is also determined by measuring the fluorescence intensity of the excitation and emission by THP at different EAR8-II concentrations. Protonated THP absorbs light at 480 nm, and emits light at 590–600 nm. Fluorescence intensity for both the excitation and emission spectra is proportional to the concentration of protonated THP stabilized in the peptide solution. Although the initial concentration of THP was constant in each complex, the amount of protonated THP varied due to the dependency of the THP encapsulation efficiency on peptide concentration.
The THP fluorescence emission spectra were acquired on a photon technology international spectrafluorometer (Type QM4-SE, London, ON, Canada) with a continuous xenon lamp as the light source. The emission spectra were collected in the wavelength range of 500–800 nm, while samples were excited at 480 nm. The maximum emission peak of THP is at a wavelength of 590–600 nm. […] The fluorescence intensity at 590 and 480 nm for emission and excitation were obtained by taking the average of twenty points of fluorescence intensity, respectively. Each fluorescence spectrum was divided by lamp intensity to account for eventual lamp fluctuations. The normalized fluorescence intensity for both emission and excitation spectra at 590 and 480 nm was plotted for various peptide-to-drug ratios.

[3] = Dynamic light scattering, particle size of peptide and peptide-drug complexes; type: physicochemical; details: DLS, intensity-based, aqueous solution, EAR8-II 0.5 mg/mL, 25 °C, no drug
Description: EAR8-II peptide solutions in the concentration range of 0.05–2 mg/mL (0.0547–2.188 mM) were prepared by dissolving peptide lyophilized powder in Milli-Q (18.2 MΩ) water (EMD Millipore, Billerica, MA, USA) followed by bath sonicating for 10 min. Freshly prepared peptide solutions were added to THP to reach fixed [THP] concentrations at 0.1 mg/mL (0.159 mM), followed by mechanical stirring at 900 rpm for 24 h.
The particle size distribution and zeta potential of peptide-drug complexes at different peptide-to-drug ratios were measured by a Zetasizer Nano ZS (Malvern Instruments, Worcestershire, UK). Appropriate settings, viscosity, refractive index, and dispersant solvent were set for each measurement at 25 °C. A small 50 μL volume of the sample was transferred from the vial to a disposable solvent resistant micro cuvette (ZEN0040, Malvern, Worcestershire, UK). The scattered light intensities of the samples were collected at an angle of 173°. This was known as backscatter detection, i.e., the relationship between the size of a particle and its scattered light intensity obtained with the multimodal Contin algorithm, which was provided in the Dispersion Technology Software 5.1 package (Malvern Instruments, Worcestershire, UK).

[4] = Tapping mode atomic force microscopy of nanostructure; type: physicochemical; details: tapping mode AFM, EAR8-II 0.5 mg/mL
Description: Figure 2. Nanostructure of (A) EAR8-II and (C) EAR8-II-THP complex by tapping mode atomic force microscopy; Intensity-based particle size distribution of (B) EAR8-II and (D) EAR8-II-THP complex in aqueous solution by dynamic light scattering. EAR8-II concentration is 0.5 mg/mL, and THP concentration is 0.1 mg/mL.

Compound	cellular viability (HeLa cells; THP at 38 μM in water, no peptide) [%]	cellular toxicity in absence of peptide (HeLa cells; THP control without peptide)	solubility of THP in water ([1]; water, no peptide, THP 0.1 mg/mL, stirring 24 h)	cellular viability (A549 cells; A549, THP at 38 μM in water, no peptide) [%]	cellular toxicity in absence of peptide (A549 cells; A549, THP control without peptide)	minimum concentration of peptide required to fully encapsulate THP [2]	hydrodynamic diameter of aggregates [3]	average height of self-assembled fibres [4] [nm]	average width of self-assembled fibres [4] [nm]	minimum EAR8-II concentration at which THP is dissolved and stabilized ([1]; aqueous solution, [THP] = 0.1 mg/mL, stirring at 900 rpm 24 h) [mg/mL]
COc1cccc2c1C(=O)c1c(O)c3c(c(O)c1C2=O)C[C@@](O)(C(=O)CO)C[C@@H]3O[C@H]1C[C@H](N)[C@H](O[C@@H]2CCCCO2)[C@H](C)O1 [THP, 4-O-tetrahydropyranyladriamycin]	29.58 ± 3.69	non-significant cellular toxicity	very low	64.9 ± 6.4	non-significant cellular toxicity	–	–	–	–	–
Ac-AEAEARAR-NH2 [EAR8-II, Ac-AEAEARAR-NH2]	–	–	–	–	–	~ 0.5 mg/mL	~ 500 nm	15	10	0.2
